Data on eight compounds can be found in patent US12466816B2, “Fused cyclic compound capable of degrading protein and use thereof” (Medshine Discovery Inc., priority 2019, dated 2025).

What all share (assay type): cell-based
For data set [1], the system named is U87-MG cells. Nature of the data set: Drug synergism experiment with DNA damaging agents (CCK-8). The note with it: 10 μM WX106, low concentrations of agent, 72 hours. The protocol:
U87-MG cells were treated with WX106 and DNA damaging agents, temozolomide, cisplatin, and gemcitabine for 72 hours, respectively, and the proliferation level of cells was detected by CCK-8. Among them, the WX106 concentration was 10 μM, and the DNA damaging agent concentrations were 0.1 μM, 1 μM and 10 μM, respectively.

In data set [2] the test system is SNU182. Kind of data set: Cell growth competition experiment with Poma (CCK-8). To be noted: 1, 10 and 50 μM Poma with 10 μM WX106, 72 hours. The protocol: (§1) Principle: It is known that Poma is a compound that binds to CRBN, and Poma has no obvious inhibitory effect on adherent cells. If a compound depends on CRBN to inhibit cell growth, Poma's competitive binding to CRBN will definitely affect the cytotoxic effect of this compound. Cells were treated with 1, 10 and 50 μM of Poma and 10 μM of WX106 for 72 hours; cell viability was detected using the CCK-8 kit and cell survival rate was calculated [based on the formula], cell survival rate=[(As −Ab)/(Ac−Ab)]×100% (where As represents the absorbance of the experimental wells, Ac represents the absorbance of the control wells, and Ab represents the absorbance of the blank wells); finally, the effect of the competitive binding of Poma on the cytotoxicity of WX106 was calculated to determine whether the cytotoxicity of WX106 is dependent on CRBN. This step was applied to both SUN182 and Hep3B cells.
CC885 was the positive control in this experiment and is known to kill tumor cells in a CRBN-dependent manner.

For data set [3], the target named is CRBN (Homo sapiens, UniProt Q96SW2). Nature of the data set: Protein degradation competition experiment (CC885-induced GSPT1 degradation). To be noted: MOLT-4 cells, co-treated with 10 nM CC885, 4 hours, Western blot. Set-up: endogenous in cells; host or cells: MOLT-4. The procedure: MOLT-4 cells were co-treated with 0.1, 1 and 10 μM of WX106 and 10 nM of CC885 for 4 hours, and the protein level of GSPT1 was then detected by Western blot, with Poma (Pomalidomide, Selleck, S1567) acting as the positive control in the experiment. Cells were collected and denatured in protein loading buffer (50 mM Tris-HCL 2% SDS, 0.025% BPB, 1% β-mercaptoethanol, 10% glycerol) at 98° C. for 10 min. Proteins were separated by SDS-PAGE and transferred to a PVDF membrane (Millipore, IPVH00010), blocked with 5% skim milk (dissolved in TBST buffer), incubated with a primary antibody overnight at 4° C., and then incubated with a secondary antibody (Anti-rabbit IgG, HRP-linked Antibody, Cell Signaling, 7074S) at room temperature for 1 hour, and the bands on the membrane were detected by chemiluminescence (ECL chemiluminescence kit, Beyotime Biotechnology, P0018AM).
On the technique in general: Immunoblotting shows a protein as a band on a membrane.

The test system of data set [4] is Hep3B cells. Nature of the data set: Cell growth competition experiment with Poma (CCK-8). The note with it: 1, 10 and 50 μM Poma with 10 μM WX106, 72 hours. The protocol: as §1
Data set [5] deals with Wee1 (Homo sapiens, UniProt P30291). Nature of the data set: Detection of compounds that degrade Wee1 protein (Western blot). To be noted: MOLT-4 cells 10 μM 4 hours; U87-MG cells 1 μM 24 hours. Set-up: endogenous in cells; host or cells: MOLT-4, U87-MG. The procedure:
MOLT-4 cells were treated with 10 μM of the test compound for 4 hours and U87-MG cells were treated with 1 μM of the test compound for 24 hours, respectively. With GAPDH (Santa Cruz, sc-32233) as the internal reference protein, the protein level of Wee1 (Cell Signaling, 13084S) was detected using Western blot. Cells were collected, lysed with protein loading buffer (1M Tris-HCl, 10% SDS, 0.025% BPB), and denatured at 98° C. for 10 min before Western blot analysis. The main steps include: 1) Electrophoresis: The protein was separated by SDS-PAGE electrophoresis. During the electrophoresis, the voltage was adjusted to 80 v for about 30 min, and then the voltage was adjusted to 120 v until the bromophenol blue ran out of the gel. 2) Transfer to a membrane: the gel was stuck to a methanol-activated PVDF membrane using the method of wet transfer, and after the top and bottom layers were wrapped with filter paper, the membrane was placed into the gel holder cassette and fixed to the transfer tank, and transfer was performed at a constant current of 250 mA for 90 min; 3) Blocking: the PVDF membrane with trace protein was placed into the antibody incubation box, 5% skim milk was added to completely cover the PVDF membrane, and incubation was performed for 1 hour on a shaker at room temperature; 4) Incubation of the primary antibody: the primary antibody was prepared with 5% BSA (1:1000) and incubated overnight on a shaker at 4° C.; 5) Incubation of the secondary antibody: the membrane was washed thrice with TBST, the secondary antibody (prepared with 5% skim milk) was added (according to the species source of the primary antibody, different secondary antibodies with a dilution range of 1:3000-1:10000 were used), and incubation was performed on a shaker at room temperature for one hour; 5) Exposure: the membrane was washed thrice with TBST and the bands on the membrane were detected by chemiluminescence.

Consider `N.N.[Cl][Pt][Cl]` [Cisplatin, cisplatin], for which the “proliferation of U87-MG cells, DNA damaging agent at low concentrations in combination with WX106” value in data set [1] is listed as “significantly inhibit the proliferation of U87-MG cells”.
On to `Nc1cccc2c1C(=O)N(C1CCC(=O)NC1=O)C2=O` (stereo not shown) [Poma, Pomalidomide], for which the “effect of Poma on the cytotoxicity caused by WX106” value in data set [2] and in data set [4] was “capable of competitively inhibiting the cytotoxicity caused by WX106” each time. In addition, the “effect on degradation of GSPT1 induced by CC885” value in data set [3] is recorded as “could inhibit the pro-degradation of GSPT1 by CC885”.
On to `O=C1CCC(c2coc3ccc(NC(=O)c4ccnc(C(F)(F)F)c4)cc23)C(=O)N1` (stereo not shown) [WX002], for which, in data set [5], the “pro-degradation effect on Wee1” value is recorded as “pro-degradation effect on Wee1”.
The same measure, in the same setting: next, `Cc1ccc(C(=O)Nc2ccc3occ(C4CCC(=O)NC4=O)c3c2)cc1` (stereo not shown) [WX003]: “pro-degradation effect on Wee1”; `O=C1CCC(c2coc3ccc(NC(=O)c4cccc(Cl)c4)cc23)C(=O)N1` (stereo not shown) [WX004]: “pro-degradation effect on Wee1”; `O=C1CCC(c2coc3ccc(NC(=O)c4ccccc4)cc23)C(=O)N1` (stereo not shown) [WX005]: “pro-degradation effect on Wee1”.
Same read-out and setting: to `CCCC(=O)Nc1ccc2occ(C3CCC(=O)NC3=O)c2c1` (stereo not shown) [WX006] belongs “pro-degradation effect on Wee1”.
`Nc1ccn([C@@H]2O[C@H](CO)[C@@H](O)C2(F)F)c(=O)n1` [gemcitabine]: the “proliferation of U87-MG cells, DNA damaging agent at low concentrations in combination with WX106” value in data set [1] is on record as “significantly inhibit the proliferation of U87-MG cells”.
